Data: paper PMC7691360, “Synthesis of novel cytotoxic tetracyclic acridone derivatives and study of their molecular docking, ADMET, QSAR, bioactivity and protein binding properties” (Scientific Reports, 2020)

Experiments:
[1] = test system: HT29 cells; test: MTT cytotoxicity assay against HT29; format: cell-based; details: Homo sapiens, 48 h, read-out: Percentage of inhibition against treated concentrations; for activity at 1 µM: HT-29, HT29, 1 µM; for activity at 5 µM: HT-29, HT29, 5 µM; for activity at 10 µM: HT-29, HT29, 10 µM; for activity at 25 µM: HT-29, HT29, 25 µM; for activity at 50 µM: HT-29, HT29, 50 µM
Description: (§1) Anticancer activity of 7a–s has been evaluated by MTT [3-(4,5-dimethylthiazol-2-yl)-2,5-diphenyl-tetrazolium bromide] assay and the cell lines HT29 (ATCC: HTB-38), MDA-MB-231 (ATCC: HTB-26), HEK293T (ATCC: CRL-3216) were procured from American type cell culture collection (ATCC), Manassas, USA and other chemicals were procured from Sigma-Aldrich. Then absorbance (used as a measure of cell proliferation) was measured at 570 nm with a kinetic micro-plate reader (BioTek, Winooski, Vermont).
(§2) Having synthesized a series of the title compounds, all of them were screened for their in vitro anticancer profiles against a panel of human colorectal adenocarcinoma (HT29), human breast adenocarcinoma (MDA-MB-231) and mutated Human embryonic kidney 293 (HEK293T) cancer cell lines by using MTT colourmetric assay as per Johan van Meerloo protocol. The three cell lines were cultured in […] medium and supplemented with 10% FBS followed by 100 units/mL penicillin/ streptomycin and were cultured at 37 °C in 5% CO2. Cell proliferation of the growing cells was measured in terms of logarithmic standards. Analytically, all the cultured cells were plated onto 96 well plates at a starting density of 10^5 cells. Then all the cells were treated with title compounds 7a–s for a period of 48 h with different concentrations. After this incubation cell proliferation inhibition was determined by MTT assay and all the experiments were conducted in triplicates and readings were presented as mean ± SD and provided in Tables 1, 2 and 3.

[2] = test system: MDA-MB-231 cells; test: MTT cytotoxicity assay against MDA-MB-231; format: cell-based; details: Homo sapiens, 48 h, read-out: Percentage of inhibition against treated concentrations; for activity at 1 µM: MDAMB231, 1 µM; for activity at 5 µM: MDAMB231, 5 µM; for activity at 10 µM: MDAMB231, 10 µM; for activity at 25 µM: MDAMB231, 25 µM; for activity at 50 µM: MDAMB231, 50 µM
Description: as §1, §2

[3] = test system: HEK293T cells; test: MTT cytotoxicity assay against HEK293T; format: cell-based; details: Homo sapiens, HEK-293T, 48 h, read-out: Percentage of inhibition against treated concentrations
Description: as §1, §2

| Structure (SMILES) | melting point | activity at 1 µM [1] | activity at 5 µM [1] | activity at 10 µM [1] | activity at 25 µM [1] | activity at 50 µM [1] | activity at 1 µM [2] | activity at 5 µM [2] | activity at 10 µM [2] | activity at 25 µM [2] | activity at 50 µM [2] | activity at 1 µM [3] | activity at 5 µM [3] | activity at 10 µM [3] | activity at 25 µM [3] | activity at 50 µM [3] |
| --- | --- | --- | --- | --- | --- | --- | --- | --- | --- | --- | --- | --- | --- | --- | --- | --- |
| Cc1ccc(C(=O)N2CCn3c4ccccc4c(=O)c4cccc2c43)nc1 [Compound 7f, 3-(5-Methylpicolinoyl)-2,3-dihydropyrazino[3,2,1-de]acridin-7(1H)-one] | 252 to 254 °C | 86.92 ± 0.24% | 61.4 ± 0.68% | 49.24 ± 0.05% | 29.09 ± 0.18% | 17.1 ± 0.65% | 83.22 ± 0.21% | 54.18 ± 0.35% | 43.7 ± 0.54% | 23.3 ± 0.26% | 13.8 ± 0.73% | 92.96 ± 0.52% | 90.92 ± 0.52% | 88.07 ± 0.68% | 80.53 ± 0.41% | 47.46 ± 0.38% |
| O=C(c1ccccn1)N1CCn2c3ccccc3c(=O)c3cccc1c32 [Compound 7a, 3-Picolinoyl-2,3-dihydropyrazino[3,2,1-de]acridin-7(1H)-one] | 232 to 234 °C | 78.91 ± 0.42% | 57.61 ± 0.39% | 44.1 ± 0.86% | 14.9 ± 0.36% | 8.77 ± 0.72% | 84.42 ± 0.35% | 55.22 ± 0.46% | 44.52 ± 0.29% | 25 ± 0.27% | 14.7 ± 0.42% | 99.93 ± 0.11% | 98.52 ± 0.96% | 97.63 ± 0.45% | 96.81 ± 0.2% | 57 ± 0.81% |
| Cc1cccnc1C(=O)N1CCn2c3ccccc3c(=O)c3cccc1c32 [Compound 7g, 3-(3-Methylpicolinoyl)-2,3-dihydropyrazino[3,2,1-de]acridin-7(1H)-one] | 221 to 223 °C | 79.09 ± 0.34% | 58.9 ± 0.93% | 45.1 ± 0.54% | 25.5 ± 0.44% | 10 ± 0.91% | 81.56 ± 0.48% | 52.3 ± 0.86% | 41.7 ± 0.74% | 14.6 ± 0.34% | 10.6 ± 0.28% | 95.9 ± 0.54% | 92.62 ± 0.31% | 88.84 ± 0.07% | 81.24 ± 0.32% | 48.2 ± 0.86% |
| O=c1c2ccccc2n2c3c(cccc13)N(c1nccs1)CC2 [Compound 7j, 3-(Thiazol-2-yl)-2,3-dihydropyrazino[3,2,1-de]acridin-7(1H)-one] | 239 to 241 °C | 89.55 ± 0.11% | 64.84 ± 0.45% | 51.5 ± 0.94% | 31.05 ± 0.19% | 17.4 ± 0.87% | 87.9 ± 0.95% | 58.4 ± 0.88% | 48.2 ± 0.88% | 39.53 ± 0.23% | 23.3 ± 0.98% | 96.71 ± 0.63% | 94.47 ± 0.83% | 91.28 ± 0.48% | 84.17 ± 0.37% | 49.6 ± 0.38% |
| O=C(c1cccnc1)N1CCn2c3ccccc3c(=O)c3cccc1c32 [Compound 7b, 3-Nicotinoyl-2,3-dihydropyrazino[3,2,1-de]acridin-7(1H)-one] | 231 to 233 °C | 89.93 ± 0.66% | 65.63 ± 0.27% | 52.5 ± 0.82% | 38.1 ± 0.42% | 19.4 ± 0.35% | 86.22 ± 0.83% | 56.42 ± 0.47% | 46.91 ± 0.44% | 32.3 ± 0.16% | 19 ± 0.62% | 98.93 ± 0.66% | 97.41 ± 0.57% | 96.44 ± 0.46% | 95.2 ± 0.29% | 55.1 ± 0.88% |

Continued, in another order:

| melting point | Structure (SMILES) | activity at 1 µM [1] | activity at 5 µM [1] | activity at 10 µM [1] | activity at 25 µM [1] | activity at 50 µM [1] | activity at 1 µM [2] | activity at 5 µM [2] | activity at 10 µM [2] | activity at 25 µM [2] | activity at 50 µM [2] | activity at 1 µM [3] | activity at 5 µM [3] | activity at 10 µM [3] | activity at 25 µM [3] | activity at 50 µM [3] |
| --- | --- | --- | --- | --- | --- | --- | --- | --- | --- | --- | --- | --- | --- | --- | --- | --- |
| 240 to 242 °C | O=C(c1ccc(C(F)(F)F)cc1)N1CCn2c3ccccc3c(=O)c3cccc1c32 [Compound 7o, 3-(4-(Trifluoromethyl)benzoyl)-2,3-dihydro-1H,7H-pyrazino[3,2,1-de]acridin-7-one] | 93.92 ± 0.39% | 77.8 ± 0.91% | 69.54 ± 0.24% | 58.23 ± 0.26% | 24.3 ± 0.76% | 94.97 ± 0.73% | 76.63 ± 0.13% | 70 ± 0.93% | 61.26 ± 0.29% | 36.1 ± 0.64% | 95.33 ± 0.63% | 91.17 ± 0.26% | 88.65 ± 0.11% | 80.68 ± 0.76% | 48.2 ± 0.79% |
| 236 to 238 °C | O=C(c1ccc(F)cc1)N1CCn2c3ccccc3c(=O)c3cccc1c32 [Compound 7r, 3-(4-Fluorobenzoyl)-2,3-dihydro-1H,7H-pyrazino[3,2,1-de]acridin-7-one] | 91.9 ± 0.93% | 75.12 ± 0.73% | 66.15 ± 0.13% | 55.26 ± 0.23% | 21.6 ± 0.24% | 96.33 ± 0.48% | 86.31 ± 0.21% | 78.85 ± 0.32% | 69 ± 0.05% | 40.7 ± 0.86% | 97.98 ± 0.88% | 95.25 ± 0.68% | 92.81 ± 0.21% | 88.11 ± 0.25% | 51.93 ± 0.23% |
| 225 to 227 °C | O=C(c1ccccc1F)N1CCn2c3ccccc3c(=O)c3cccc1c32 [Compound 7p, 3-(2-Fluorobenzoyl)-2,3-dihydro-1H,7H-pyrazino[3,2,1-de]acridin-7-one] | 90.43 ± 0.77% | 74.71 ± 0.22% | 65.8 ± 0.76% | 54.13 ± 0.37% | 21 ± 0.22% | 89.82 ± 0.36% | 68.3 ± 0.79% | 61.77 ± 0.42% | 51.43 ± 0.36% | 30.3 ± 0.84% | 96.23 ± 0.74% | 93.99 ± 0.91% | 89.17 ± 0.81% | 82.34 ± 0.34% | 48.53 ± 0.12% |
| 265 to 267 °C | O=C(c1ccc(O)cc1)N1CCn2c3ccccc3c(=O)c3cccc1c32 [Compound 7k, 3-(4-hydroxybenzoyl)-2,3-dihydro-1H,7H-pyrazino[3,2,1-de]acridin-7-one] | 96.6 ± 0.99% | 81.84 ± 0.11% | 74.68 ± 0.64% | 66.23 ± 0.18% | 28 ± 0.96% | 97.31 ± 0.74% | 88.16 ± 0.43% | 80.54 ± 0.54% | 70.48 ± 0.17% | 41.5 ± 0.91% | 99.55 ± 0.46% | 97.77 ± 0.09% | 96.79 ± 0.17% | 95.46 ± 0.43% | 56.26 ± 0.12% |
